Results from BindingDB's records for patent US10071110 (University of California, 2018).

Target: T1, Capsid scaffolding protein (Human cytomegalovirus (strain AD169), UniProt P16753)
T1 sequence (P16753 whole entry): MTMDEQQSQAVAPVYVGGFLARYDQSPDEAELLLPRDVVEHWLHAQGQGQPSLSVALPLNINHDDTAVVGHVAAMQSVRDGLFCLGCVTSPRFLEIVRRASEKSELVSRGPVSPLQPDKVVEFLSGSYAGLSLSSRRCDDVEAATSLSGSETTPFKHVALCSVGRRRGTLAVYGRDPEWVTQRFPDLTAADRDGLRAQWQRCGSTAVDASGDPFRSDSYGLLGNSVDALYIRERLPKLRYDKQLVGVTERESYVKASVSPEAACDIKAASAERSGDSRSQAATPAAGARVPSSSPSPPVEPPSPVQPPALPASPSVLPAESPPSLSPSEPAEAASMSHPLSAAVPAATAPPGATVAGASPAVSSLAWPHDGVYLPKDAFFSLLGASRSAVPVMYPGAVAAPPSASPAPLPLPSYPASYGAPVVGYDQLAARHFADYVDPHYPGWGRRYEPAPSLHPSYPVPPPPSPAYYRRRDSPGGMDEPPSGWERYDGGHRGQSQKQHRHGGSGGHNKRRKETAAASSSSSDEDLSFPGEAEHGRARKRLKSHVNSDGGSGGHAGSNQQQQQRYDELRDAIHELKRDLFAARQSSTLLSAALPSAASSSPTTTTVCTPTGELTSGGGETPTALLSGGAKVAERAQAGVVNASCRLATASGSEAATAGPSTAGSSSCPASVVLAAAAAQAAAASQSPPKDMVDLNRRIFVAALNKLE
Experiment: HCMV antiviral assay
Description: Methods 21:293-298, 1990. […] After absorption of the lysate, the Hybriwix filters were hybridized overnight at 60° C.

Nc1ncnc2c1ncn2CCOCP(=O)(O)O [US10071110, Compound Adefovir]
EC50: 55 µM
